Test results from ChEMBL document CHEMBL1150030, “Benzolactam growth hormone secretagogues: replacements for the 2-tetrazole moiety of L-692,429” (1994).

Species: Rattus norvegicus
Test: In vitro effective dose for the growth hormone(GH) release in rat pituitary cells
Format: functional
Conditions: Pituitary gland cell, read-out: ED50 (the source's name)

`CC(C)(N)CC(=O)N[C@@H]1CCc2ccccc2N(Cc2ccc(-c3ccccc3-c3nnnn3CC(=O)O)cc2)C1=O` gave an EC50 of 1000 nM.
With `CC(C)(N)CC(=O)N[C@@H]1CCc2ccccc2N(Cc2ccc(-c3ccccc3-c3nnn(CC(=O)O)n3)cc2)C1=O` the EC50 was 200 nM.
`Cn1nnnc1-c1ccccc1-c1ccc(CN2C(=O)[C@H](NC(=O)CC(C)(C)N)CCc3ccccc32)cc1` gave an EC50 of 500 nM.
With `CC(C)(N)CC(=O)N[C@@H]1CCc2ccccc2N(Cc2ccc(-c3ccccc3-c3nnn(Cc4ccccc4)n3)cc2)C1=O` the EC50 was 1000 nM.
`CC(C)(N)CC(=O)N[C@@H]1CCc2ccccc2N(Cc2ccc(-c3ccccc3-c3nnnn3Cc3ccccc3)cc2)C1=O` gave an EC50 of 700 nM.
Molecule `CC(C)(N)CC(=O)N[C@@H]1CCc2ccccc2N(Cc2ccc(-c3ccccc3S(=O)(=O)NC(C)(C)C)cc2)C1=O` has an EC50 of 4000 nM.
With `CC(C)(N)CC(=O)N[C@@H]1CCc2ccccc2N(Cc2ccc(-c3ccccc3S(=O)(=O)NC(=O)c3ccccc3)cc2)C1=O` the EC50 was 3000 nM.
For `CC(O)Cn1nnc(-c2ccccc2-c2ccc(CN3C(=O)[C@H](NC(=O)CC(C)(C)N)CCc4ccccc43)cc2)n1` (some centres not stated), the EC50 was 50 nM.
In the case of `CC(C)(N)CC(=O)N[C@@H]1CCc2ccccc2N(Cc2ccc(-c3ccccc3-c3nn[nH]n3)cc2)C1=O`, the EC50 is reported as 60 nM.
`CC(C)(N)CC(=O)N[C@@H]1CCc2ccccc2N(Cc2ccc(-c3ccccc3S(N)(=O)=O)cc2)C1=O` gave an EC50 of 3000 nM.
In the case of `CC(C)(N)CC(=O)N[C@@H]1CCc2ccccc2N(Cc2ccc(-c3ccccc3C(N)=O)cc2)C1=O`, the EC50 is reported as 80 nM.
In the case of `CC(C)(N)CC(=O)N[C@@H]1CCc2ccccc2N(Cc2ccc(-c3ccccc3C(=O)O)cc2)C1=O`, the EC50 is reported as 3000 nM.
With `Cc1ccccc1-c1ccc(CN2C(=O)[C@H](NC(=O)CC(C)(C)N)CCc3ccccc32)cc1` the EC50 was 1000 nM.
`CC(O)Cn1nnnc1-c1ccccc1-c1ccc(CN2C(=O)[C@H](NC(=O)CC(C)(C)N)CCc3ccccc32)cc1` (some centres not stated) gave an EC50 of 50 nM.
Molecule `Cn1nnc(-c2ccccc2-c2ccc(CN3C(=O)[C@H](NC(=O)CC(C)(C)N)CCc4ccccc43)cc2)n1` has an EC50 of 300 nM.
Work on `CC(C)(N)CC(=O)N[C@@H]1CCc2ccccc2N(Cc2ccc(-c3ccccc3C#N)cc2)C1=O` (racemic) yielded an EC50 of 5000 nM.
With `COC(=O)c1ccccc1-c1ccc(CN2C(=O)[C@H](NC(=O)CC(C)(C)N)CCc3ccccc32)cc1` (racemic) the EC50 was 2000 nM.
